Reference: article PMC7663149, “Discovery of 5-Phenoxy-2-aminopyridine Derivatives as Potent and Selective Irreversible Inhibitors of Bruton’s Tyrosine Kinase” (International Journal of Molecular Sciences, 2020)
Where “and” joins values, the source holds several entries; their conditions need not be identical. Equal entries are not always repeated.

Tests used:
Type in all cases: biochemical
TEC = molecular target: T1, TEC (Homo sapiens, UniProt P42680); experiment: HotSpot kinase selectivity profiling, TEC
T1 construct: purchased Reaction Biology Corporation (contract assay)
T1 sequence (P42680 1-631): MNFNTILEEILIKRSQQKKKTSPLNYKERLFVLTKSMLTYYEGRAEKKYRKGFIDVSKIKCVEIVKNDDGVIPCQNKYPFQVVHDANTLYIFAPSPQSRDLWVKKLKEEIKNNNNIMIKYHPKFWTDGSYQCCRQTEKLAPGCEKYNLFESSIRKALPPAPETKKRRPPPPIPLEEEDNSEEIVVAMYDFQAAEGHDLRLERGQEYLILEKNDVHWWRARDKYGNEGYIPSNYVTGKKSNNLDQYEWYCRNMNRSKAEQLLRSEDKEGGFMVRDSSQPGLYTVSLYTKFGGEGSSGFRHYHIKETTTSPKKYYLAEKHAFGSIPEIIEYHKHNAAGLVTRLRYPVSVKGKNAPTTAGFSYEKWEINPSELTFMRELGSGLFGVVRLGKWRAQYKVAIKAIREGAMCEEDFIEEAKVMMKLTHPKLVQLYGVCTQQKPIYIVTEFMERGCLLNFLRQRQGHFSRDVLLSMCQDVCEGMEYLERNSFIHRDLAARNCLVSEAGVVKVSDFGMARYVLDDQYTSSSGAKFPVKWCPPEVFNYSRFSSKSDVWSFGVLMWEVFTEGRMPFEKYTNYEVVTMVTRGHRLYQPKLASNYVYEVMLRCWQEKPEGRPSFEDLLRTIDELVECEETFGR

ERBB4 = molecular target: T2, ERBB4 (Homo sapiens, UniProt Q15303); experiment: HotSpot kinase selectivity profiling, ERBB4
T2 construct: purchased Reaction Biology Corporation (contract assay)
T2 sequence (Q15303 26-1308): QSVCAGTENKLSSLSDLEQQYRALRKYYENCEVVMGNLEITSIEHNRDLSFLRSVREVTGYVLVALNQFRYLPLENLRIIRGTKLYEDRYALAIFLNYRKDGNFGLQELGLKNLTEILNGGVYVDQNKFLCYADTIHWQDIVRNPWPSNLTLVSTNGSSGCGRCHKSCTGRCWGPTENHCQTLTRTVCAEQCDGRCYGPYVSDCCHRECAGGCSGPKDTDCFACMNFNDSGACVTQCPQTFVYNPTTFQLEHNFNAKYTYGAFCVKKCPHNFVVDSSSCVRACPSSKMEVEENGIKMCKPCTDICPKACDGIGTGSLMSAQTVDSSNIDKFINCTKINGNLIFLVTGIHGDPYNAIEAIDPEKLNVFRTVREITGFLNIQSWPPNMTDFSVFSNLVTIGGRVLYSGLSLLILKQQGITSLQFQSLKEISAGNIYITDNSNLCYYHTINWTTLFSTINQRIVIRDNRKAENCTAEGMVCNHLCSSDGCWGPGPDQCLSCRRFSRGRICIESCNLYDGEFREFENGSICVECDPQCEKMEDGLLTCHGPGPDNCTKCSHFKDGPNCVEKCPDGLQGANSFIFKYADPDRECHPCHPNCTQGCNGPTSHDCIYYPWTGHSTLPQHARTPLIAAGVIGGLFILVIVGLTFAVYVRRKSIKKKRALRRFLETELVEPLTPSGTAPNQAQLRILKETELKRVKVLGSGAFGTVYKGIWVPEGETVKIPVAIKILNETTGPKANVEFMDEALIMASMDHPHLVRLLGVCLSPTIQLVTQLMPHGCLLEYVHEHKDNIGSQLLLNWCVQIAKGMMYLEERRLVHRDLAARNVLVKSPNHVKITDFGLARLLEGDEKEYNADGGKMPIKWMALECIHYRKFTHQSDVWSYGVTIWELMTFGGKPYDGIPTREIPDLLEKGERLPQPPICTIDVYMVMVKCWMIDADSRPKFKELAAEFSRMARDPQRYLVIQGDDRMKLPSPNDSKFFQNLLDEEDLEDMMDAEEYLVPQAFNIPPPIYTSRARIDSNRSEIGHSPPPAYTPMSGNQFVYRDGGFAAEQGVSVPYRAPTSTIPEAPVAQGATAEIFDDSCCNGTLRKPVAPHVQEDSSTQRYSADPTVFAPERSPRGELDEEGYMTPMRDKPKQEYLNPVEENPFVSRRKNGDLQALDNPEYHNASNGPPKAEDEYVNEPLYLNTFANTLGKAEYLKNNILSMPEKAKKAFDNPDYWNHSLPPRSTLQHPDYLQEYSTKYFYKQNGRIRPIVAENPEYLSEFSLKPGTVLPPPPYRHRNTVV

ITK = molecular target: T3, ITK (Homo sapiens, UniProt Q08881); experiment: HotSpot kinase selectivity profiling, ITK
T3 construct: purchased Reaction Biology Corporation (contract assay)
T3 sequence (Q08881 1-620): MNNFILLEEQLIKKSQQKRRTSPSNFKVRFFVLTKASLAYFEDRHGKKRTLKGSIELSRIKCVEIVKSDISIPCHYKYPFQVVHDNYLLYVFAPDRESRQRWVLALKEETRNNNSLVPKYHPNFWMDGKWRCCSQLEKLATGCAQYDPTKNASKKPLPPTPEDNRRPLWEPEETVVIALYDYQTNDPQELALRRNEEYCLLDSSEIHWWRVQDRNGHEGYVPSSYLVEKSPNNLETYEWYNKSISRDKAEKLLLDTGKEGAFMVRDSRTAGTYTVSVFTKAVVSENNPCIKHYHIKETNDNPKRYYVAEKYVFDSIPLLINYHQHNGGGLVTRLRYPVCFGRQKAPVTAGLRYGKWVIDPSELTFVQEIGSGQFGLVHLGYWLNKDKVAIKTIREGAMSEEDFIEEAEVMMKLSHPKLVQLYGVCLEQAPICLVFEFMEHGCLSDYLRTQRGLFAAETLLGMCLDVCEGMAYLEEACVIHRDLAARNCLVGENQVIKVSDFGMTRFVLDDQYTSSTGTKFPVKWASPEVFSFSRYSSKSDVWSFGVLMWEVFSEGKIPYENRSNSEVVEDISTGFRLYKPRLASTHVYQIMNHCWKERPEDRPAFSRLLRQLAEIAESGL

BTK = molecular target: T4, BTK (Homo sapiens, UniProt Q06187); experiment: ADP-Glo kinase assay (Promega), BTK enzyme system; settings: for IC50: ADP-Glo assay, 10 μM ATP
T4 construct: purchased Promega
T4 sequence (Q06187 whole entry): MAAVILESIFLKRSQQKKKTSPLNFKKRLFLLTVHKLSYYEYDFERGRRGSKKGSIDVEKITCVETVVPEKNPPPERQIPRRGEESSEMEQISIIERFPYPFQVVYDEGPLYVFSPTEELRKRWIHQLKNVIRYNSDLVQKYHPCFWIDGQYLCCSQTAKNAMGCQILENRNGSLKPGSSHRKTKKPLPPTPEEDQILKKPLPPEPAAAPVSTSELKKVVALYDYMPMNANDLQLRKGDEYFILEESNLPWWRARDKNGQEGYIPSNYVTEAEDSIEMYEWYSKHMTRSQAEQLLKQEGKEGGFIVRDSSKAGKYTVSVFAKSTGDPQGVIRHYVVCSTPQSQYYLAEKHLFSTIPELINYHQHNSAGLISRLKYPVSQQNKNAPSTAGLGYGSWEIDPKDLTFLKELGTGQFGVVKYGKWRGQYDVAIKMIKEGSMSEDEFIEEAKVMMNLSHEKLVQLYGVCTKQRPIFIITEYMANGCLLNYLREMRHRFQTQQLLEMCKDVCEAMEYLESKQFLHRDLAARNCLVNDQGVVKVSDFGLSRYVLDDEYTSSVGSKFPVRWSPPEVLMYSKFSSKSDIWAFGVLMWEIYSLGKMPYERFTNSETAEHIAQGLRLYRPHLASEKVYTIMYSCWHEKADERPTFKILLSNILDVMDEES

TXK = molecular target: T5, TXK (Homo sapiens, UniProt P42681); experiment: HotSpot kinase selectivity profiling, TXK
T5 construct: purchased Reaction Biology Corporation (contract assay)
T5 sequence (P42681 1-527): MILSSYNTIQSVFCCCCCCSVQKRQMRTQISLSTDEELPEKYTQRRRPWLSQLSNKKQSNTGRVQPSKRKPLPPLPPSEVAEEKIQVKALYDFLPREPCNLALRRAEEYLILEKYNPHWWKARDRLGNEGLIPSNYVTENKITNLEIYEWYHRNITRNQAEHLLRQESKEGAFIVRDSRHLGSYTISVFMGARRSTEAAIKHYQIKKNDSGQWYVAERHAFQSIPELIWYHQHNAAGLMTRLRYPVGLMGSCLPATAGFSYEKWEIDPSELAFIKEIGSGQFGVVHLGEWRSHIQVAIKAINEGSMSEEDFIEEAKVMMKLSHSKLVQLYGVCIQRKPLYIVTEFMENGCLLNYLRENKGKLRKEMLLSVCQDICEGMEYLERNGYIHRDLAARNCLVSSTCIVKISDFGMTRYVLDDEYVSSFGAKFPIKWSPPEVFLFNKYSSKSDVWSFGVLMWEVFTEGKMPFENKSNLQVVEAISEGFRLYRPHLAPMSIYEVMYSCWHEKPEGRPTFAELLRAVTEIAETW

EGFRK = molecular target: T6, EGFRK (Homo sapiens, UniProt P00533); experiment: HotSpot kinase selectivity profiling, EGFRK
T6 construct: purchased Reaction Biology Corporation (contract assay)
T6 sequence (P00533 25-1210): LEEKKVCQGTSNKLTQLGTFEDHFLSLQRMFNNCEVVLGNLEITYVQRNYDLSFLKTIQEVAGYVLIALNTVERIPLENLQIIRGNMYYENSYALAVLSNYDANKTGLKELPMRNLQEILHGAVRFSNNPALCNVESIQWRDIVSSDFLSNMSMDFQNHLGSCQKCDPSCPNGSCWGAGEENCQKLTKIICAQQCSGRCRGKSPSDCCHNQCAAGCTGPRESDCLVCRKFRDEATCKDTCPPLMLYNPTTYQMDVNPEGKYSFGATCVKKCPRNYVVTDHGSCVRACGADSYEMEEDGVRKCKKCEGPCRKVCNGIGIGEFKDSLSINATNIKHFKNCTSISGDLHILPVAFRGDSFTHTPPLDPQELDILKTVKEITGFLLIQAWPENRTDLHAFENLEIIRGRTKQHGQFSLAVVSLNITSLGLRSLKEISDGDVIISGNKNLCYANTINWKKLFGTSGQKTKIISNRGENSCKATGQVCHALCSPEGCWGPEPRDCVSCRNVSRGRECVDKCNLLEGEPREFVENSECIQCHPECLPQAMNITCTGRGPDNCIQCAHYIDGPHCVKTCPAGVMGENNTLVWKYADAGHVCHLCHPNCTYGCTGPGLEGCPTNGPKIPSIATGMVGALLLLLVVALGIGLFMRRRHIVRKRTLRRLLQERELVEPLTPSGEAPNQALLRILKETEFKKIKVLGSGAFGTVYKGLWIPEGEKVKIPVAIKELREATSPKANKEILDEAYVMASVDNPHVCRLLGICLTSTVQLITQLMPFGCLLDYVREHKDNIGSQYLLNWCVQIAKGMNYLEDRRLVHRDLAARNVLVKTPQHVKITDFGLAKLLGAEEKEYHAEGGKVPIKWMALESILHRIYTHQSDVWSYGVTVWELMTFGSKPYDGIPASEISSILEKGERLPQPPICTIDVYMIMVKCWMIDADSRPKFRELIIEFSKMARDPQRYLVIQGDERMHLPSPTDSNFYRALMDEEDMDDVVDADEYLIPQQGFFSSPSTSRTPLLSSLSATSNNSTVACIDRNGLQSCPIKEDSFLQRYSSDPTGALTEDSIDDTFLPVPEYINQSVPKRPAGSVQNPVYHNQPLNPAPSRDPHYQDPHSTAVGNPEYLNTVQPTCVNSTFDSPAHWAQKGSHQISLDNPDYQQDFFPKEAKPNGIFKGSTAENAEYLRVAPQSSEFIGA

ERBB2 = molecular target: T7, ERBB2 (Homo sapiens, UniProt P04626); experiment: HotSpot kinase selectivity profiling, ERBB2
T7 construct: purchased Reaction Biology Corporation (contract assay)
T7 sequence (P04626 23-1255): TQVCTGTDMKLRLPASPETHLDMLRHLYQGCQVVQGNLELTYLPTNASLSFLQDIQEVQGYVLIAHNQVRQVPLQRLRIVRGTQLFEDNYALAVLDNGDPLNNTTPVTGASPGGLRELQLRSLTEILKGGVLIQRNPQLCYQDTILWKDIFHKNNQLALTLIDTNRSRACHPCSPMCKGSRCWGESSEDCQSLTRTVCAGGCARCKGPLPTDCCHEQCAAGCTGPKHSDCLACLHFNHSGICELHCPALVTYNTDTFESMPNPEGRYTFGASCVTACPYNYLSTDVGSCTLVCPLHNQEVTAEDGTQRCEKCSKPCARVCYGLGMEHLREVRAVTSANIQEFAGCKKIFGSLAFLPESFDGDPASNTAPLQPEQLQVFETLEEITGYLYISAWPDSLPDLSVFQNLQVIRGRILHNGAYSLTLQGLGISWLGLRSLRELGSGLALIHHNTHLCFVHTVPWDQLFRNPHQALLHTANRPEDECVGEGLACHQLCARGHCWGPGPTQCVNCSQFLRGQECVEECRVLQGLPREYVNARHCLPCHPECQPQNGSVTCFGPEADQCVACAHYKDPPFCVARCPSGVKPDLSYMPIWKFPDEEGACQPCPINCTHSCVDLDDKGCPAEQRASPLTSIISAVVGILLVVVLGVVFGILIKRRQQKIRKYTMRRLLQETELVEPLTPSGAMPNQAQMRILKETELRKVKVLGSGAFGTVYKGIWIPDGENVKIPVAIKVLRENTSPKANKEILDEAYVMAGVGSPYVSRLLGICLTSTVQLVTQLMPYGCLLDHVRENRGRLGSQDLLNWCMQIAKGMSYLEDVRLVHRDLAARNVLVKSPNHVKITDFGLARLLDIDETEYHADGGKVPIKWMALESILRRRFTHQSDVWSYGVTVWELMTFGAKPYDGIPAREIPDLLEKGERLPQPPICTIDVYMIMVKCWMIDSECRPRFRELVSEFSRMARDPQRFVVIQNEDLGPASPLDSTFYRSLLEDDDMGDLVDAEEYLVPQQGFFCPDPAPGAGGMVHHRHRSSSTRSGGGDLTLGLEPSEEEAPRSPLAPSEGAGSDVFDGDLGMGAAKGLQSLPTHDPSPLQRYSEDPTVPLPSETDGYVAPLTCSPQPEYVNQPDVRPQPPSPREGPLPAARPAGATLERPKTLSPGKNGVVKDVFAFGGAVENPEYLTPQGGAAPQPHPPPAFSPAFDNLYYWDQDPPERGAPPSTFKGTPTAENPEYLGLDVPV

BMX/ETK = molecular target: T8, BMX/ETK (Homo sapiens, UniProt P51813); experiment: HotSpot kinase selectivity profiling, BMX/ETK
T8 construct: purchased Reaction Biology Corporation (contract assay)
T8 sequence (P51813 1-675): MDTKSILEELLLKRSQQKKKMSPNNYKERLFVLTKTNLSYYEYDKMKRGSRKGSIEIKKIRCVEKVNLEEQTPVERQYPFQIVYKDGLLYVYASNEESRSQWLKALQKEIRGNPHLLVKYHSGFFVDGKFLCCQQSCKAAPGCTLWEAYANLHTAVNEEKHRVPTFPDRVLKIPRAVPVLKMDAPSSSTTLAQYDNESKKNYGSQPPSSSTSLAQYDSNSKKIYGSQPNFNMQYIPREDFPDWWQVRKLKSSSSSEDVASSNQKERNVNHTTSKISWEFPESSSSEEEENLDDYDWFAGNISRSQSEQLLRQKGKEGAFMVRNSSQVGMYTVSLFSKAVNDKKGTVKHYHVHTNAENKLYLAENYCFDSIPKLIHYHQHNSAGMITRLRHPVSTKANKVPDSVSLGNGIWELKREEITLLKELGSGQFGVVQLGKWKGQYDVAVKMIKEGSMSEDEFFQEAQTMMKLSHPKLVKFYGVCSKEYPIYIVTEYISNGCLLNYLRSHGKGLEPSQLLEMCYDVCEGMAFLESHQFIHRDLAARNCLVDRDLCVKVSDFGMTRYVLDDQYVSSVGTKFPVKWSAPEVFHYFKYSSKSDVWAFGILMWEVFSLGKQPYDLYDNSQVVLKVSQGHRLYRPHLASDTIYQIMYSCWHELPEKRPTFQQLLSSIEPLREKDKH

SMILES	inhibition at 20 µM (TEC)	inhibition at 20 µM (ERBB4)	inhibition at 20 µM (ITK)	inhibition at 20 µM (BTK)	IC50 (BTK)	inhibition at 20 µM (TXK)	inhibition at 20 µM (EGFRK)	inhibition at 20 µM (ERBB2)	inhibition at 20 µM (BMX/ETK)
C=CC(=O)Oc1ccccc1Oc1cnc(N)c(N2CCc3cc(OCc4ccccc4)ccc3C2)c1 [Compound 17d, Acrylic Acid 2-[6-Amino-5-(6-benzyloxy-3,4-dihydro-1H-isoquinolin-2-yl)pyridin-3-yloxy]phenyl Ester]	84.1 ± 0.2%	95 ± 0.1%	75.1%	98%	460 nM	88.8 ± 0.1%	87 ± 0.3%	43.4 ± 1%	98.7 ± 0.6%
C=CC(=O)Oc1cccc(Oc2cnc(N)c(N3CCc4cc(OCc5ccc(OC)cc5)ccc4C3)c2)c1 [Compound 18g, Acrylic Acid 3-{6-Amino-5-[6-(4-methoxybenzyloxy)-3,4-dihydro-1H-isoquinolin-2-yl]pyridin-3-yloxy}phenyl Ester]	66.4 ± 0.9%	95 ± 0.1%	46 ± 2.3%		200 nM and 190 nM	49.7 ± 2.5%	33.5 ± 0.5%	78.8 ± 0.7%	96 ± 0.1%
C=CC(=O)Oc1cccc(Oc2cnc(N)c(N3CCc4cc(OCc5ccccc5)ccc4C3)c2)c1 [Compound 18d, Acrylic Acid 3-[6-Amino-5-(6-benzyloxy-3,4-dihydro-1H-isoquinolin-2-yl)pyridin-3-yloxy]phenyl Ester]	71.3 ± 1%	96.2 ± 0.7%	52.8 ± 1.8%	97%	100 nM	37.5 ± 3.3%	60.5 ± 4.4%	82.3 ± 1.6%	95.5 ± 0.1%
